Counter-ions that a name gives are not always drawn. Square brackets hold non-standard residues; d marks the D form. Peptide text beside a SMILES is read from it. * marks the point of attachment. Sta = CC(C)C[C@H](N)[C@@H](O)CC(=O)O; Isovaleryl = CC(C)CC(=O)*
test system: PRKACA-PRKAR2A interaction (SmBiT-PRKACA / LgBiT-PRKAR2A), protein kinase A; design: NanoLuc complementation counter-screen in cell extract, PRKACA with PRKAR2A, loss of luminescence, detects NanoLuc interference; settings: 0.5 h, 20 µM; inhibitor

Row | SMILES | Inh (PKA) [%]
1 | O=P1(NCCCl)OCCCN1CCCl (stereo not shown) [UM0118931:03, Ifosfamide] | -0.3336

same assay, conditions: counter-screen for NanoLuc interference, 0.5 h, 20 µM, inhibitor, Inh (PKA)

Row | SMILES | Inh (PKA) [%]
2 | NCCc1c[nH]cn1 [UM0119882:03, Histamine 2HCl] | 0.5416

same assay, conditions: counter-screen for NanoLuc interference; 0.5 h, 20 µM; inhibitor

Row | SMILES | Inh (PKA) [%]
3 | Nc1nc(N)c2nc(-c3ccccc3)c(N)nc2n1 [UM0118431:03, Triamterene] | 1.702
4 | CN1CCN(CCCN2c3ccccc3Sc3ccc(C(F)(F)F)cc32)CC1 [UM0118432:03, Trifluoperazine 2HCl] | 8.71
5 | Clc1ccccc1CN1CCc2sccc2C1 [UM0118440:03, Ticlopidine HCl] | 23.02
6 | CCc1nc(N)nc(N)c1-c1ccc(Cl)cc1 [UM0118442:03, Pyrimethamine] | 0.5127
7 | Cc1cccc(Nc2ccccc2C(=O)O)c1C [UM0118444:03, Mefenamic Acid] | 19.56
8 | CN1CCN2c3ccccc3Cc3ccccc3C2C1 (stereo not shown) [UM0118451:03, Mianserin HCl] | 11.82
9 | C[N+]1(C)CCC(=C(c2ccccc2)c2ccccc2)CC1 [UM0118457:03, Diphemanil Methylsulfate] | -0.1303
10 | COc1ccc2c(c1)c(CC(=O)O)c(C)n2C(=O)c1ccc(Cl)cc1 [UM0118515:03, Indomethacin] | 5.004
11 | CS(=O)(=O)Nc1ccc([N+](=O)[O-])cc1Oc1ccccc1 [UM0118531:03, Nimesulide] | 82.23
12 | CCCCOc1ccc(CC(=O)NO)cc1 [UM0118579:03, Bufexamac] | 1.558
13 | CCCCNc1cc(C(=O)O)cc(S(N)(=O)=O)c1Oc1ccccc1 [UM0118581:03, Bumetanide] | 2.877
14 | CC(C)CC(=O)N[C@H](C(=O)N[C@H](C(=O)N[C@@H](CC(C)C)[C@@H](O)CC(=O)N[C@@H](C)C(=O)N[C@@H](CC(C)C)[C@@H](O)CC(=O)O)C(C)C)C(C)C [UM0118622:03, Pepstatin A] (Isovaleryl-VV[Sta]A[Sta]-OH) | 1.204
15 | C[C@](N)(Cc1ccc(O)c(O)c1)C(=O)O [UM0118624:04, Methyldopa] | -0.4014
16 | Nc1c2c(nc3ccccc13)CCCC2 [UM0118625:03, Tacrine hydrochloride] | 1.154
17 | C#CCN(C)CCCOc1ccc(Cl)cc1Cl [UM0118650:03, Clorgyline (hydrochloride)] | 10.49
18 | COc1cccc2c1C(=O)c1c(O)c3c(c(O)c1C2=O)C[C@@](O)(C(C)=O)C[C@@H]3O[C@H]1C[C@H](N)[C@H](O)[C@H](C)O1 [UM0118677:04, Daunorubicin HCl] | 42.12
19 | CNCCC(Oc1ccc(C(F)(F)F)cc1)c1ccccc1 (stereo not shown) [UM0118682:03, Fluoxetine HCl] | 5.529
20 | CC(=O)Oc1cc(C(F)(F)F)ccc1C(=O)O [UM0118728:03, Triflusal] | 6.12
21 | CCCc1ncc(C[n+]2ccccc2C)c(N)n1 [UM0118750:03, Amprolium HCl] | -0.09679
22 | Cc1cc2c(cc1S(N)(=O)=O)S(=O)(=O)CCC2 [UM0118751:03, Meticrane] | 1.197
23 | COc1cc2nc(N3CCN(C(=O)C4COc5ccccc5O4)CC3)nc(N)c2cc1OC (stereo not shown) [UM0118850:03, Doxazosin Mesylate] | 2.176
24 | Cc1cc2c(C(C)C)c(O)c(O)c(C=O)c2c(O)c1-c1c(C)cc2c(C(C)C)c(O)c(O)c(C=O)c2c1O [UM0118855:03, Gossypol] | 56.08
25 | NS(=O)(=O)c1cc(Cl)c(Cl)c(S(N)(=O)=O)c1 [UM0118893:03, Dichlorphenamide] | -0.9742
26 | CCN[C@H]1CN(CCCOC)S(=O)(=O)c2sc(S(N)(=O)=O)cc21 [UM0118906:03, Brinzolamide] | -0.219

Row | SMILES | Inh (PKA) [%]
27 | CCN[C@H]1C[C@H](C)S(=O)(=O)c2sc(S(N)(=O)=O)cc21 [UM0118923:03, Dorzolamide HCl] | -0.4651
28 | CS(=O)(=O)c1ccc([C@@H](O)[C@@H](CF)NC(=O)C(Cl)Cl)cc1 [UM0118980:03, Florfenicol] | -0.2471
29 | Cc1c(OCC(F)(F)F)ccnc1C[S+]([O-])c1nc2ccccc2[nH]1 (stereo not shown) [UM0118982:03, Lansoprazole] | 1.885
30 | Cc1c(OCC(F)(F)F)ccnc1C[S@@+]([O-])c1nc2ccccc2[nH]1 [UM0118982:04, Dexlansoprazole] | 2.726
31 | CC(C)(Oc1ccc(C2CC2(Cl)Cl)cc1)C(=O)O (stereo not shown) [UM0119000:03, Ciprofibrate] | 9.84
32 | CCOC(=O)c1ccc(OC(=O)CCCCCNC(=N)N)cc1 [UM0119043:03, Gabexate mesylate] | 2.691
33 | Nc1ccc(O)c(C(=O)O)c1 [UM0119062:03, Mesalamine] | 8.926
34 | CC(C)(C(=O)c1cccnc1)c1cccnc1 [UM0119067:03, Metyrapone] | 1.858
35 | Cc1cccc(Nc2ccncc2S(=O)(=O)NC(=O)NC(C)C)c1 [UM0119116:03, Torsemide] | 21.46
36 | O=C(O[C@@H]1Cc2c(O)cc(O)cc2O[C@@H]1c1cc(O)c(O)c(O)c1)c1cc(O)c(O)c(O)c1 [UM0119174:03, (-)-Epigallocatechin gallate (EGCG)] | 17.48
37 | O=C1Cc2c([nH]c3ccc(Br)cc23)-c2ccccc2N1 [UM0119194:04, Kenpaullone] | 40.47
38 | O=c1oc2c(O)c(O)cc3c(=O)oc4c(O)c(O)cc1c4c23 [UM0119370:03, Ellagic acid] | 2.639
39 | CCCCCCCCCCC[C@@H](C[C@@H]1OC(=O)[C@H]1CCCCCC)OC(=O)[C@H](CC(C)C)NC=O [UM0119382:03, Orlistat] | -0.3481
40 | C=CCc1ccc(O)c(-c2ccc(O)c(CC=C)c2)c1 [UM0119411:03, Honokiol] | 48.27
41 | c1ccc2c(Cc3c[nH]c4ccccc34)c[nH]c2c1 [UM0119470:03, 3,3'-Diindolylmethane] | 34.9
42 | Nc1ccncc1 [UM0119500:03, 4-Aminopyridine] | 0.4521
43 | CC(=O)Oc1ccccc1C(=O)O [UM0119503:03, Aspirin (Acetylsalicylic acid)] | 1.275
44 | CC(=O)N[C@@H](CS)C(=O)O [UM0119535:03, Acetylcysteine] | 1.097
45 | COc1ccc(C(=O)N2CCCC2=O)cc1 [UM0119560:03, Aniracetam] | 4.422
46 | NC(=O)c1ccccc1 [UM0119596:03, Benzamide] | -0.9754
47 | O=C1CCc2cc(OCCCCc3nnnn3C3CCCCC3)ccc2N1 [UM0119639:03, Cilostazol] | 4.034
48 | C[C@@](Cc1ccc(O)c(O)c1)(NN)C(=O)O [UM0119735:03, Carbidopa] | 2.512
49 | NCCc1ccc(O)c(O)c1 [UM0119875:03, Dopamine HCl] | 1.983
